Experimental findings from patent publication US8076369B2, “N-alkyl-hydroxamic acid-isoindolyl compounds and their pharmaceutical uses” (Celgene Corporation, priority 2003, dated 2011) are described below.

A word on the melting point: it is the temperature of the solid-liquid transition.

Structures are written as SMILES.

The molecule `CCOc1cc([C@@H](CCN(O)C=O)N2Cc3cccc(NC(=O)C4CC4)c3C2=O)ccc1OC` [Example 7, (1R)-Cyclopropanecarboxylic acid {2-[1-(3-ethoxy-4-methoxy-phenyl)-3-(N-formyl-N-hydroxy-amino)-propyl]-3-oxo-2,3-dihydro-1H-Isoindol-4-yl}-amide] showed a melting point of 102 to 104 °C. In turn, `CCOc1cc([C@@H](CCN(O)C(N)=O)N2Cc3cccc(NC(=O)C(C)C)c3C2=O)ccc1OC` [Example 12, (1R)—N-{2-[3-(N-Aminocarbonyl-N-hydroxy-amino)-1-(3-ethoxy-4-methoxy-phenyl)-propyl]-3-oxo-2,3-dihydro-1H-Isoindol-4-yl}-Isobutyramide] came in with a melting point of 137 to 139 °C. As for `CCOc1cc(C(CCN(OC(=O)OC(C)(C)C)C(=O)OC(C)(C)C)N2Cc3cccc(N)c3C2=O)ccc1OC` (stereo not drawn) [Example 5, N-[3-(7-Amino-1-oxoisoindolin-2-yl)-3-(3-ethoxy-4-methoxyphenyl)propyl](tert-butoxy)carbonylamino (tert-butoxy)formate], the figure is 85 to 87 °C; as for `CCOc1cc([C@@H](CCN(O)C=O)N2Cc3cccc(NC(=O)C(C)C)c3C2=O)ccc1OC` [Example 9, (1R)—N-{2-[1-(3-Ethoxy-4-methoxy-phenyl)-3-(N-formyl-N-hydroxy-amino)-propyl]-3-oxo-2,3-dihydro-1H-Isoindol-4-yl}-Isobutyramide], 81 to 83 °C. As for `CCOc1cc([C@@H](CCNO)N2Cc3cccc(NC(=O)C4CC4)c3C2=O)ccc1OC` [Example 6, (3R)-Cyclopropanecarboxylic acid {2-[1-(3-ethoxy-4-methoxy-phenyl)-3-hydroxyamino-propyl]-3-oxo-2,3-dihydro-1H-Isoindol-4-yl}-amide], the figure is 136 to 138 °C; as for `CCOc1cc(C(CCN(OC(=O)OC(C)(C)C)C(=O)OC(C)(C)C)N2Cc3cccc(NC(=O)C4CC4)c3C2=O)ccc1OC` [Example 4, (3R)-(tert-Butoxy)-N-{3-[7-(cyclopropylcarbonylamino)-1-oxoisoindolin-2-yl]-3-(3-ethoxy-4-methoxyphenyl)propyl}carbonylamino(tert-butoxy)formate], 153 to 155 °C. `CCOc1cc([C@@H](CCN(O)C=O)N2Cc3cccc(NC(C)=O)c3C2=O)ccc1OC` [Example 8, (1R)—N-{2-[1-(3-Ethoxy-4-methoxy-phenyl)-3-(N-formyl-N-hydroxy-amino)-propyl]-3-oxo-2,3-dihydro-1H-Isoindol-4-yl}-acetamide] returned a melting point of 79 to 81 °C. As for `CCOc1cc([C@@H](CCN(O)C=O)N2C(=O)c3cccc(NC(C)=O)c3C2=O)ccc1OC` [Example 10, (1R)—N-{2-[1-(3-Ethoxy-4-methoxy-phenyl)-3-(N-formyl-N-hydroxy-amino)-propyl]-1,3-dioxo-2,3-dihydro-1H-Isoindol-4-yl}-acetamide], the figure is 96 to 98 °C. As for `CCOc1cc(C(CCN(OC(C)=O)C(C)=O)N2Cc3cccc(NC(=O)C4CC4)c3C2=O)ccc1OC` (stereo not drawn) [Example 14], the figure is 123 to 125 °C.

With `CCOc1cc([C@@H](CC(C)N(O)C=O)N2Cc3cccc(NC(=O)C4CC4)c3C2=O)ccc1OC` (stereo partly drawn) [Example 15, (1R)-Cyclopropanecarboxylic acid {2-[1-(3-ethoxy-4-methoxy-phenyl)-3-(formyl-hydroxy-amino)-butyl]-3-oxo-2,3-dihydro-1H-Isoindol-4-yl}-amide], the melting point was 142 to 144 °C. In the case of `CCOc1cc([C@@H](CCO)N2Cc3cccc(NC(=O)C4CC4)c3C2=O)ccc1OC` [Example 1, (1R)-Cyclopropanecarboxylic acid {2-[1-(3-ethoxy-4-methoxy-phenyl)-3-hydroxy-propyl]-3-oxo-2,3-dihydro-1H-Isoindol-4-yl}-amide], the melting point was 103 to 105 °C.

Consider `CCOc1cc([C@@H](CCN(C=O)OC(C)=O)N2Cc3cccc(NC(=O)C(C)C)c3C2=O)ccc1OC` [Example 11, (1R)—N-{2-[3-(N-Acetoxy-N-formyl-amino)-1-(3-ethoxy-4-methoxy-phenyl)-propyl]-3-oxo-2,3-dihydro-1H-Isoindol-4-yl}-Isobutyramide], for which the melting point fell in the range of 72 to 74 °C.
